Assay results published in ChEMBL document CHEMBL5696442, “Discovery of type II inhibitors of TGFβ-activated kinase 1 (TAK1) and mitogen-activated protein kinase kinase kinase kinase 2 (MAP4K2)” (J Med Chem, 2015).
Active and inactive are the calls of the source. The rule behind the calls is not given here.

Assays:
[1] = target: Tyrosine-protein kinase ABL1 (Homo sapiens, UniProt P00519); assay: Inhibition of ABL1 (unknown origin) at 10 uM by Ambit Kinomescan binding assay relative to control; values are per cent of control
[2] = target: Death-associated protein kinase 2 (Homo sapiens) (UniProt Q9UIK4); assay: Inhibition of DAPK2 (unknown origin) at 10 uM by Ambit Kinomescan binding assay
[3] = target: T1, Interleukin-1 receptor-associated kinase 4 (Homo sapiens) (UniProt Q9NWZ3); assay: Inhibition of IRAK4 K2 labeling site in human Huh-7 cells at 10 uM by KiNativ Profiling analysis relative to control; format: cell-based
T1 sequence (whole entry): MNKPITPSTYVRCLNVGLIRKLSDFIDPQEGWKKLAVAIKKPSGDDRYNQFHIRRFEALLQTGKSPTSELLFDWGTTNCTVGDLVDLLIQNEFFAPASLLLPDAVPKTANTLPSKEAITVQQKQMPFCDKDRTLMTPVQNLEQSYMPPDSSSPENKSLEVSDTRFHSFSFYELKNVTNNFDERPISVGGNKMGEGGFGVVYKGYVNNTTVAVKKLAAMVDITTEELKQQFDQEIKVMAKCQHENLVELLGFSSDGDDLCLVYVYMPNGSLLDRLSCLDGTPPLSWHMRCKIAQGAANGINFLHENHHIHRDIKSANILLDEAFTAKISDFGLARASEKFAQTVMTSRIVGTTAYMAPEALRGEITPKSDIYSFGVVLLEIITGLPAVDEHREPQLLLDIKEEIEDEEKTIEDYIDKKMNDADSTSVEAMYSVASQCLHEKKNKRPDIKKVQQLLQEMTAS

[4] = target: T2, Eukaryotic elongation factor 2 kinase (Homo sapiens) (UniProt O00418); assay: Inhibition of eEF2K ATP labeling site harbouring YIKYNSNSGFVRDDNIR in human A-375 cells at 0.5 uM by KiNativ Profiling analysis relative to control; format: cell-based
T2 sequence (whole entry): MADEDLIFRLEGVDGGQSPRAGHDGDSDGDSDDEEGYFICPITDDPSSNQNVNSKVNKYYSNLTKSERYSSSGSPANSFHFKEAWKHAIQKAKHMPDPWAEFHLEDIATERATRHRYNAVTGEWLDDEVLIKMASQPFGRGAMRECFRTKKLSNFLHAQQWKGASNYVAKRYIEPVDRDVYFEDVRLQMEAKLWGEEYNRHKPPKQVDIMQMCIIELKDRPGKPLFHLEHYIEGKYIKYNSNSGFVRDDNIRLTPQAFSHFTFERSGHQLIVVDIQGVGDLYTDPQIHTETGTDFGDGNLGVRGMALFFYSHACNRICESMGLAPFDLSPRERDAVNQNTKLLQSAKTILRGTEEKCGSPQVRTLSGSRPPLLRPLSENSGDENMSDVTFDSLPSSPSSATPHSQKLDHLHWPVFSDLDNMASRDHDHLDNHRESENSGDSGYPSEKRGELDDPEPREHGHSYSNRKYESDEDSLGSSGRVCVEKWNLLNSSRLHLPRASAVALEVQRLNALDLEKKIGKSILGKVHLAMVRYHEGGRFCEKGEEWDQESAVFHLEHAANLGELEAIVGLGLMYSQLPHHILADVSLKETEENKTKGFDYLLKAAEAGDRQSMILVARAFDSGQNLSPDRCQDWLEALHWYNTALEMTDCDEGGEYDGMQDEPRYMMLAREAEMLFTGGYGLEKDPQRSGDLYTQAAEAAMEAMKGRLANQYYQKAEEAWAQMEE

[5] = target: Tyrosine-protein kinase ABL (Homo sapiens) (UniProt P00519+P42684); assay: Inhibition of ABL1/2 K1 labeling site in human Huh-7 cells at 1 uM by KiNativ Profiling analysis relative to control; format: cell-based
[6] = target: Serine/threonine-protein kinase Nek4 (Homo sapiens) (UniProt P51957); assay: Inhibition of NEK4 (unknown origin) at 1 uM by Ambit Kinomescan binding assay relative to control; values are per cent of control
[7] = target: T3, Serine/threonine-protein kinase ULK1 (Homo sapiens) (UniProt O75385); assay: Inhibition of ULK1 Lys2 labeling site in human A-375 cells at 5 uM by KiNativ Profiling analysis relative to control; format: cell-based
T3 sequence (whole entry): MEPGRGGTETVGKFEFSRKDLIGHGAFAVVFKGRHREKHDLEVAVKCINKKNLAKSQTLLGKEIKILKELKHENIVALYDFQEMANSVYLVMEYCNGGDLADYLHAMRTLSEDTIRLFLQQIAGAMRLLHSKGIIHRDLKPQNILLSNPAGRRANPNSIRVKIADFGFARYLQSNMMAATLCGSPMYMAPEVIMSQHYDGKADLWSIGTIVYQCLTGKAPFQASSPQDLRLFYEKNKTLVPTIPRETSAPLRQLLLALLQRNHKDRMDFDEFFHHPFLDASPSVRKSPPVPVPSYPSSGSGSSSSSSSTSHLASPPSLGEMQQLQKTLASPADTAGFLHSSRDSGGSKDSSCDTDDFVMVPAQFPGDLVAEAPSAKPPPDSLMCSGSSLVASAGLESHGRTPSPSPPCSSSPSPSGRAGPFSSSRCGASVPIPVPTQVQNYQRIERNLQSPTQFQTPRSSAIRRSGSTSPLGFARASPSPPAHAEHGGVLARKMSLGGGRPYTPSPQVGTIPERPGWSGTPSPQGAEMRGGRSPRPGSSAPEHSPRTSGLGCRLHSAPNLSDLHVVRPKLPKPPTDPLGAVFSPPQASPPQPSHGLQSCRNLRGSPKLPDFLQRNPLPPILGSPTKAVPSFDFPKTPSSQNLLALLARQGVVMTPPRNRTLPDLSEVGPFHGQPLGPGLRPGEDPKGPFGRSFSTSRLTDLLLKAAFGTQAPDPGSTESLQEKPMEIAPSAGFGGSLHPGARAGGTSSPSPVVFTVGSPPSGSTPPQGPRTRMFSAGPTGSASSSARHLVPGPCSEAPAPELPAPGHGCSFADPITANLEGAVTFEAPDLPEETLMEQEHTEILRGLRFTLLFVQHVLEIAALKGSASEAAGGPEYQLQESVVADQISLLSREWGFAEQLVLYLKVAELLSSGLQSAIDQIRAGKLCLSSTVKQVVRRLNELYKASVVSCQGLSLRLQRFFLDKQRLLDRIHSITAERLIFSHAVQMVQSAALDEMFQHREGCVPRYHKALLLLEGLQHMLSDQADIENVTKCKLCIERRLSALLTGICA

Chain of Tyrosine-protein kinase ABL (Homo sapiens) (P00519 whole entry, looked up): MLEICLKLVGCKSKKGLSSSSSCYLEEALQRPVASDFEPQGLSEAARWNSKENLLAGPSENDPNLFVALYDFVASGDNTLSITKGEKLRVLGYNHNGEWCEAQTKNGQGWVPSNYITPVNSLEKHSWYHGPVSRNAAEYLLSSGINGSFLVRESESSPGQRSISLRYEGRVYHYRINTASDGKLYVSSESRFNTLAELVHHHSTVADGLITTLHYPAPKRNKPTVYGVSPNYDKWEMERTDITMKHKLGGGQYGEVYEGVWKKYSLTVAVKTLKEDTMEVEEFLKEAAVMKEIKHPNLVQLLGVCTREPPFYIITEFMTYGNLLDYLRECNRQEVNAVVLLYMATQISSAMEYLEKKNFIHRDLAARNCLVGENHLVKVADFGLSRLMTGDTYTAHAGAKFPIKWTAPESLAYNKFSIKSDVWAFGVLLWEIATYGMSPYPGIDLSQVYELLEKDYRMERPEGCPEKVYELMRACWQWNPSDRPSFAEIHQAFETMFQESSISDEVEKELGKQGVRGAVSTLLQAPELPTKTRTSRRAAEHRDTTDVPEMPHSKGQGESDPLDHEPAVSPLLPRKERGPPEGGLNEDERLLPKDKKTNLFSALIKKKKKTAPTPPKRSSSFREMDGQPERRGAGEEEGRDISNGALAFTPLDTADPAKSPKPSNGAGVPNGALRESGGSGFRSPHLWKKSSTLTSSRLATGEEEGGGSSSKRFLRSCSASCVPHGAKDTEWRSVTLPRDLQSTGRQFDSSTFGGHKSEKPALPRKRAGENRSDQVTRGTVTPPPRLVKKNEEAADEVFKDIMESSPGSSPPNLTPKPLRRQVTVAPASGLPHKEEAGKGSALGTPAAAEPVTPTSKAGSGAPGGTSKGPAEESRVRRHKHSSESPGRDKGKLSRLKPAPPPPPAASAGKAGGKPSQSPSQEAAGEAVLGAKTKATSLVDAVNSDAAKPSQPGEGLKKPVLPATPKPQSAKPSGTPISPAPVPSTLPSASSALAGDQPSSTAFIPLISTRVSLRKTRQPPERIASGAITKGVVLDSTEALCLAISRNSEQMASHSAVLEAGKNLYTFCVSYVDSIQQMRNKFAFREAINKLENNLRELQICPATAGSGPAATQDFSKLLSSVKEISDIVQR
Chain of Tyrosine-protein kinase ABL (Homo sapiens) (P42684 whole entry, looked up): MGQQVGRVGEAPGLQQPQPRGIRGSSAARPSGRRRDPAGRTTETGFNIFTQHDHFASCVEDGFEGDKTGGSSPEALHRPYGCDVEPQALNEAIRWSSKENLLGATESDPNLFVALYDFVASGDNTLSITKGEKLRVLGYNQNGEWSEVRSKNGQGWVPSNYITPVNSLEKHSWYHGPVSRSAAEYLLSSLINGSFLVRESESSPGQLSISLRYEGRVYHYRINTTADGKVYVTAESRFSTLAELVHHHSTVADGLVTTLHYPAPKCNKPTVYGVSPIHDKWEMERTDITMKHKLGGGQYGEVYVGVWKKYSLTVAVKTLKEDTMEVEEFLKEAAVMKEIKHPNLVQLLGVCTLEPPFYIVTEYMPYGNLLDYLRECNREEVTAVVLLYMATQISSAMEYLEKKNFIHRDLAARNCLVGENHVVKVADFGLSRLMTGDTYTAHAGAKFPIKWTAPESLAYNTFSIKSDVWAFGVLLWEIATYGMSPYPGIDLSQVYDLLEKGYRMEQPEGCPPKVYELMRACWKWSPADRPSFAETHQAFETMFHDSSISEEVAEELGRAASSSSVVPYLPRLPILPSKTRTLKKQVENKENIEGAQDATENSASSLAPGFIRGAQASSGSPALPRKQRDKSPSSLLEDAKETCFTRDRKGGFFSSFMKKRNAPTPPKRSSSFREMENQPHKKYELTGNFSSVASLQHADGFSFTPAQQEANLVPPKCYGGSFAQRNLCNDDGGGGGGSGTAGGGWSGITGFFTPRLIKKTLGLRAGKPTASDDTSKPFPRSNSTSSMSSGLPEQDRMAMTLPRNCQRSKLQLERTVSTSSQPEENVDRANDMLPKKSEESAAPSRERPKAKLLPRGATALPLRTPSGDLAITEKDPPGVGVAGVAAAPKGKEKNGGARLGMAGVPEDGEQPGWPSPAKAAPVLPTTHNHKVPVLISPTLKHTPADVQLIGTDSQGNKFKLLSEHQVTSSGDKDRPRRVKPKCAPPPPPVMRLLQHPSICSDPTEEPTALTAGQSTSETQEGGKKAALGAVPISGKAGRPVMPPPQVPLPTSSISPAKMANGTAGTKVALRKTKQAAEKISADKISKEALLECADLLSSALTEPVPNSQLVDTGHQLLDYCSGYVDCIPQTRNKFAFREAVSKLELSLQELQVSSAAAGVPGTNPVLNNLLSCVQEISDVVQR
Chain of Tyrosine-protein kinase ABL1 (P00519 whole entry): as the sequence (P00519 whole entry, looked up) above
Chain of Death-associated protein kinase 2 (Homo sapiens) (Q9UIK4 whole entry, looked up): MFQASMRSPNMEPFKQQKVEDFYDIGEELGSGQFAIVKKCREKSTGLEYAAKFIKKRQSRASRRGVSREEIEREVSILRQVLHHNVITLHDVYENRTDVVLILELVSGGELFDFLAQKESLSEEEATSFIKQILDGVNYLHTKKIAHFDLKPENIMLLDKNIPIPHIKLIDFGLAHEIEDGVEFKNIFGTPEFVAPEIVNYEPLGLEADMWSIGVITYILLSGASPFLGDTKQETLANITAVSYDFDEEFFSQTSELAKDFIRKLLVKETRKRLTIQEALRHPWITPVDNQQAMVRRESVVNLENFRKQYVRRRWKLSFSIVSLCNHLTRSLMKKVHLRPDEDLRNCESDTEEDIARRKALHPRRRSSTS
Chain of Serine/threonine-protein kinase Nek4 (Homo sapiens) (P51957 whole entry, looked up): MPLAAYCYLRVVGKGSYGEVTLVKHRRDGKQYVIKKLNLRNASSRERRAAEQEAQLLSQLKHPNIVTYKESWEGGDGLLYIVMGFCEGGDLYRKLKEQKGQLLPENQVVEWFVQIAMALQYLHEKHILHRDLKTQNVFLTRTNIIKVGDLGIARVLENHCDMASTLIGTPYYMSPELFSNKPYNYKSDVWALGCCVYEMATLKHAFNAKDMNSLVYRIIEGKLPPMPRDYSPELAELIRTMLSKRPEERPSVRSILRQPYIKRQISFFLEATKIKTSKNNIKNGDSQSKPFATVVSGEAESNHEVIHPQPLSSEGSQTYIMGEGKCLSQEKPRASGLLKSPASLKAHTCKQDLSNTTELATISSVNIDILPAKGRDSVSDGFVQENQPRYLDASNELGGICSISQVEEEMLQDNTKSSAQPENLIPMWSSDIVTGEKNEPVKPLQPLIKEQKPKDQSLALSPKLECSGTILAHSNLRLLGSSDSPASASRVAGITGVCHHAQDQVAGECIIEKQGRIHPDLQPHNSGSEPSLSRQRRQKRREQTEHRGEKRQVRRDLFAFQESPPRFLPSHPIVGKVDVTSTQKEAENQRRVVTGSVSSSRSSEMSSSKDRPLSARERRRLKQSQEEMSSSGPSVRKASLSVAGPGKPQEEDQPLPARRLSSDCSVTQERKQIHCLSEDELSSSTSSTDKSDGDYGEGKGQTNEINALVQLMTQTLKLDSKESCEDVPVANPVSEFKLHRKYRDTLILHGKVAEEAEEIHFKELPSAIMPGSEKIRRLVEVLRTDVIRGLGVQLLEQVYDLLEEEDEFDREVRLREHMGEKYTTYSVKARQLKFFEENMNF

## CCN1CCN(Cc2ccc(NC(=O)c3ccc(C)c(Oc4ccnc5[nH]ccc45)c3)cc2C(F)(F)F)CC1
[1]
  percent of control: 0.1%
[2]
  inhibition: inactive
[3]
  inhibition: 17.8%
[4]
  inhibition: 0.1%
[5]
  inhibition: 16.4%

## CCN1CCN(Cc2ccc(NC(=O)c3ccc(C)c(/C=C/c4cnc5[nH]ccc5c4OC)c3)cc2C(F)(F)F)CC1
[6]
  residual activity: 100%
[7]
  inhibition: -1.3%
